The values below come from patent publication US10016418B2, “Compounds useful as modulators of TRPM8” (Senomyx, Inc., priority 2010, dated 2018).

For one assay, the target named is T1, hTRPM8 (Homo sapiens, UniProt Q7Z2W7).
T1 construct: expressed in transfected cells
Nature of the assay: hTRPM8 agonist assay in a mammalian cell line stably expressing hTRPM8. The class given is cell-based. To be noted: for EC50 WS-3 Ratio: EC50 ratio to WS-3. As to the method:
A mammalian cell line derivative which stably expresses hTRPM8 was used in biological assays in association with testing the present compounds with cool-tasting or -feeling properties (Servant et al. US 2007/0259354 A1 and references cited therein). Typical compound concentrations tested were 100 μM, 50 μM, 10 μM, 1 μM, and 0.5 μM. The present compounds have shown strong activity as agonists of hTRPM8. Assay results for compounds are illustrated in Table 1 below. Specifically, the Examples listed in Table 1, i.e., Compounds A1 to Compounds U10 are the specific compounds, i.e., Examples, as described above.

The nature of assay [1]: Cool Line Scale Test (sensory panel, 15 point line scale, WS-3 reference). Type of assay: in vivo, human. Here is the method:
All samples made with Low Sodium Buffer (LSB) pH ˜7.1 and contain 0.1% ethanol.
Compounds are rated on a 15 point line scale where 45 μM WS-3 (N-Ethyl-p-menthane-3-carboxamide) is ranked as a 5 in cool intensity. In most cases our compounds are tested to determine at what concentration the cooling intensity is equivalent to 45 μM WS-3. In each test, the panelist is presented with a 0 μM control sample, a 45 μM WS-3 control sample and the experimental compound sample and asked to rate the cooling intensity of each sample. Panelists are also asked to rate bitterness. In the table below there was no significant bitterness detected unless otherwise noted. Also, in the table below, n represents the number of tests completed for a given experiment (#panelists x #repetitions).
All samples were prepared with Low Sodium Buffer (LSB) pH ˜7.1 and contain 0.1% ethanol

[2] abbreviates: Table 7, scaffold T7, Ar phenyl vs thienyl.
Where [3] appears, read: Table 1, cell line stably expressing hTRPM8.

pEC50: −log10 of the molar value. A value given as a limit tells only on which side of the number the result lay.

T1 sequence (Q7Z2W7 whole entry): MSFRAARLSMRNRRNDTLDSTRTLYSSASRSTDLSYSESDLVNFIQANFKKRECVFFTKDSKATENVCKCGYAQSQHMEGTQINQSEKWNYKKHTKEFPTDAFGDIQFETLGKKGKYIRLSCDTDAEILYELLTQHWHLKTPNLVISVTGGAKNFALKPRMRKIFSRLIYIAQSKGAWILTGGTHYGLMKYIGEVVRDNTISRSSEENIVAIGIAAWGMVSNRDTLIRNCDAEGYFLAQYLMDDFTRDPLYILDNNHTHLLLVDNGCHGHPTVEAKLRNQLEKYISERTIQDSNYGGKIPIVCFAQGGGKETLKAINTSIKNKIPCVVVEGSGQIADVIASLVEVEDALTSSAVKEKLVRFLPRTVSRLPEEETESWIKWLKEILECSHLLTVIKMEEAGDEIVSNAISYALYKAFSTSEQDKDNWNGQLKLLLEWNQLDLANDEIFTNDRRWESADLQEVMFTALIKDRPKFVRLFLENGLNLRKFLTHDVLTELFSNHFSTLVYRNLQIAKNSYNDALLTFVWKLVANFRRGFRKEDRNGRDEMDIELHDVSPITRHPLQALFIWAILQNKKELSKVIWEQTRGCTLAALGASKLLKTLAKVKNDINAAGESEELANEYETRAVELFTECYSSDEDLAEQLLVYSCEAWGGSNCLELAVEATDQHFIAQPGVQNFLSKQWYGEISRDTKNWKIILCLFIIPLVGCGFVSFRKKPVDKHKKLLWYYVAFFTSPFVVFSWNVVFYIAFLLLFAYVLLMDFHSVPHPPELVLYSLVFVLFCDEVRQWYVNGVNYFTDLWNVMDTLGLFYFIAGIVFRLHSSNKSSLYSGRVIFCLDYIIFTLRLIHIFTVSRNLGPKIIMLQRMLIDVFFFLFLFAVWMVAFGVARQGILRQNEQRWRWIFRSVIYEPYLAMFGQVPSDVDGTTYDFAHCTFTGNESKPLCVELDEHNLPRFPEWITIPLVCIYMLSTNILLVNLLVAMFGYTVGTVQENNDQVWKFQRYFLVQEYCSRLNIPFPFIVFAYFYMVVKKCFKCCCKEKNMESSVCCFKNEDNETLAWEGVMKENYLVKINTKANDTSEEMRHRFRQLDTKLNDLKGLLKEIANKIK

As to `Cc1ccc(OCC(=O)N(C)Cc2cccs2)cc1` [drawing 234: 4-Me, Methyl, Thienyl], at hTRPM8 (setting [2]), the pEC50 (in general, the EC50 on a negative log10 scale, so that one unit is a factor of ten) is 6.43. For `CCN(Cc1cccs1)C(=O)COc1ccc(C)cc1` [drawing 234: 4-Me, Ethyl, Thienyl], the pEC50 on hTRPM8 (setting [2]) is 8.16. Regarding `O=C(COc1ccc(Br)cc1)N(Cc1ccccc1)c1ccccn1` [drawing 234: 4-Br, 2-Pyridyl, Phenyl, reference compound], the pEC50 on hTRPM8 (setting [2]) is 4.81. `Cc1ccc(OCC(=O)N(Cc2cccs2)c2ccn[nH]2)cc1` [Example F1, N-(1H-pyrazol-5-yl)-N-(thiophen-2-ylmethyl)-2-(p-tolyloxy)acetamide]: the “Average Cooling” value in assay [1] (Table 4, 3 μM in LSB pH ~7.1, 0.1% ethanol, n = 28) is on record as 5.1. Further, in assay [1] (compound at 3 μM), the “Sensory Results: cooling compared with 0 μM WS-3” value was “Panelists found 3 μM Compound F1 was significantly more cooling” and the “Sensory Results: cooling compared with 45 μM WS-3” value was “not significantly different in cooling”. The “EC50 WS-3 Ratio” value on hTRPM8 (Table 1) worked out at 21178. For the same compound, on hTRPM8 (setting [3]), the negative-log EC50 (pEC50) was 9.69. In the case of `CCNC(=O)C1CC(C)CCC1C(C)C` (centres unmarked) [WS-3, N-Ethyl-p-menthane-3-carboxamide, reference compound], the “Average Cooling” value in assay [1] (Table 2, 45 μM WS-3 control, LSB pH ~7.1, 0.1% ethanol, n = 30) was determined as 3.8; in assay [1] (Table 4, 45 μM WS-3 control, n = 28), 5.2.

Regarding `CCN(Cc1cccs1)C(=O)COc1ccc(C)cc1` [Example U1, N-ethyl-N-(thiophen-2-ylmethyl)-2-(p-tolyloxy)acetamide], the “Sensory Results: cooling compared with 0 μM WS-3” value in assay [1] (compound at 5 μM) is recorded as “Panelists found 5 μM Compound U1 was significantly more cooling”. Also, the “EC50 WS-3 Ratio” value on hTRPM8 (Table 1) is 577. Besides, on hTRPM8 (setting [3]), the negative logarithm of the EC50 (pEC50) was 8.11. For the compound `Cc1ccc(OCC(=O)N(Cc2ccccc2)c2ccccn2)cc1` [drawing 234: 4-Me, 2-Pyridyl, Phenyl, reference compound], the negative-log EC50 (pEC50) at hTRPM8 (setting [2]) is 5.33.

For the compound `CCN(Cc1cccs1)C(=O)COc1ccccc1` [drawing 234: H, Ethyl, Thienyl], the pEC50 on hTRPM8 (setting [2]) was 5.84. On the same count and under the same terms, the figure for `O=C(COc1ccc(Br)cc1)N(Cc1cccs1)c1ccccn1` [drawing 234: 4-Br, 2-Pyridyl, Thienyl] is 5.64; for `Cc1ccc(OCC(=O)N(C)Cc2ccccc2)cc1` [drawing 234: 4-Me, Methyl, Phenyl, reference compound] it is below 4.00.

With `O=C(COc1ccc2c(c1)CCC2)N(Cc1cccs1)c1cn[nH]c1` [Example C1, 2-(2,3-dihydro-1H-inden-5-yloxy)-N-(1H-pyrazol-4-yl)-N-(thiophen-2-ylmethyl)acetamide], the “EC50 WS-3 Ratio” value at hTRPM8 (Table 1) stood at 502141. Further, the negative logarithm of the EC50 (pEC50) at hTRPM8 (setting [3]) is 10.77.

For `Cc1ccc(OCC(=O)N(Cc2cccs2)c2ccccn2)cc1` [drawing 234: 4-Me, 2-Pyridyl, Thienyl], the pEC50 on hTRPM8 (setting [2]) was 6.30. For `CCN(Cc1ccccc1)C(=O)COc1ccc(C)cc1` [drawing 234: 4-Me, Ethyl, Phenyl, reference compound], the pEC50 on hTRPM8 (setting [2]) is 6.11. As for `CCN(Cc1cccs1)C(=O)/C=C/c1ccc2c(c1)OCO2`, the pEC50 on hTRPM8 (Table 8, scaffold T8) was below 9.00. As to `O=C(COc1ccc2c(c1)CCC2)N(Cc1cccs1)c1cc[nH]n1` [Example A1, 2-(2,3-dihydro-1H-inden-5-yloxy)-N-(1H-pyrazol-3-yl)-N-(thiophen-2-ylmethyl)acetamide], the “EC50 WS-3 Ratio” value on hTRPM8 (Table 1) was determined as 782471. The negative logarithm of the EC50 (pEC50) at hTRPM8 (setting [3]) was 11.05. At hTRPM8 (setting [2]), `CCN(Cc1ccccc1)C(=O)COc1ccccc1` [drawing 234: H, Ethyl, Phenyl, reference compound] showed a negative-log EC50 (pEC50) of 5.04. As to `Cc1c[nH]nc1N(Cc1cccs1)C(=O)COc1ccc2c(c1)CCC2` [Example B1, 2-(2,3-dihydro-1H-inden-5-yloxy)-N-(4-methyl-1H-pyrazol-3-yl)-N-(thiophen-2-ylmethyl)acetamide], the “Sensory Results: cooling compared with 0 μM WS-3” value in assay [1] (compound at 5 μM) was “Panelists found 5 μM Compound B2 was significantly more cooling”. For the same compound, the “EC50 WS-3 Ratio” value at hTRPM8 (Table 1) came to 1000000. The same compound showed a negative-log EC50 (pEC50) at hTRPM8 (setting [3]) of 12.00. For the compound `O=C(COc1ccc(Cl)cc1)N(Cc1cccs1)c1ccccn1` [drawing 234: 4-Cl, 2-Pyridyl, Thienyl], on hTRPM8 (setting [2]), the negative logarithm of the EC50 (pEC50) is 5.63.
